# Laboratory results as given in publication PMC2229574 (The Journal of General Physiology, 2003).
# Values joined by “and” are separate entries in the source; they are usually repeats but may differ in a detail not shown here. Identical values can stand only once. Like-named read-outs stand apart in the source and are kept apart here.
# Key:
# [1] = target: mouse AChR αD97I (Mus musculus, UniProt P02716+P04756+P20782, D117I)
# [2] = target: mouse AChR αD97V (Mus musculus, UniProt P02716+P04756+P20782, D117V)
# [3] = target: mouse AChR αD97N (Mus musculus, UniProt P02716+P04756+P20782, D117N)
# [4] = target: mouse AChR αD97E (Mus musculus, UniProt P02716+P04756+P20782, D117E); conditions: for L2: kinetic modeling
# [5] = target: mouse AChR αD97F (Mus musculus, UniProt P02716+P04756+P20782, D117F)
# [6] = target: mouse AChR αD97R (Mus musculus, UniProt P02716+P04756+P20782, D117R)
# [7] = target: mouse AChR β-subunit G98A (Mus musculus, UniProt P02716+P04756+P09690+P20782, G121A); conditions: 20 mM choline
# [8] = target: mouse AChR δ-subunit N98A (Mus musculus, UniProt P02716+P04756+P20782, N122A); conditions: 20 mM choline
# [9] = target: mouse AChR δ-subunit D99A (Mus musculus, UniProt P02716+P04756+P20782, D123A); conditions: 20 mM choline
# [10] = target: wild-type mouse AChR (α2βδɛ) (Mus musculus, UniProt P02716+P04756+P20782); conditions: cited from earlier work
# [11] = joint fit choline 1, 2 and 5 mM, Scheme I
# Chain of mouse AChR αD97F (P04756 21-457 D117F): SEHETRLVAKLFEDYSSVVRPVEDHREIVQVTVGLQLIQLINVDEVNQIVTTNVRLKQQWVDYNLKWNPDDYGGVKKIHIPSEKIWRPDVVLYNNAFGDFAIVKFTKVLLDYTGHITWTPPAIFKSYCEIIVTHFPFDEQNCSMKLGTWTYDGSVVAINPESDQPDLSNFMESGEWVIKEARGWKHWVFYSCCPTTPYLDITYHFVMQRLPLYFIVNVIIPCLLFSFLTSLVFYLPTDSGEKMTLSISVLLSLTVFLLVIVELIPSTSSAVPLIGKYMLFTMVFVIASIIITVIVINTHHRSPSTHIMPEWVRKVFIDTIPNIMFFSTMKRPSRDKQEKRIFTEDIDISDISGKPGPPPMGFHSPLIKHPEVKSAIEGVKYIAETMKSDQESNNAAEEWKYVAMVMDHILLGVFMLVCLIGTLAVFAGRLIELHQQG
# Chain of mouse AChR αD97F (P09690 24-501 partner): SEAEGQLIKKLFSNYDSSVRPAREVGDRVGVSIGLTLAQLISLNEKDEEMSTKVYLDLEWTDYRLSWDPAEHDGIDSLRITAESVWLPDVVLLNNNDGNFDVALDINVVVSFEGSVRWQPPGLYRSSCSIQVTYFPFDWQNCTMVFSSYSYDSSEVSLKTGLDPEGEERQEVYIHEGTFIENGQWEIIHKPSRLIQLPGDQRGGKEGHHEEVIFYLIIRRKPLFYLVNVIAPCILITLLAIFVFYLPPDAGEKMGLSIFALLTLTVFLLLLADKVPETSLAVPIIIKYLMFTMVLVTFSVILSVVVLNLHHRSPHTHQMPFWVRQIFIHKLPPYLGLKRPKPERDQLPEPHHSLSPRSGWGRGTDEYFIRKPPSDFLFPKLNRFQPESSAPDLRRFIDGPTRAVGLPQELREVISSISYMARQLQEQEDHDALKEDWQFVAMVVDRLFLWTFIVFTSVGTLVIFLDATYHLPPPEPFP
# Chain of mouse AChR αD97F (P02716 25-520): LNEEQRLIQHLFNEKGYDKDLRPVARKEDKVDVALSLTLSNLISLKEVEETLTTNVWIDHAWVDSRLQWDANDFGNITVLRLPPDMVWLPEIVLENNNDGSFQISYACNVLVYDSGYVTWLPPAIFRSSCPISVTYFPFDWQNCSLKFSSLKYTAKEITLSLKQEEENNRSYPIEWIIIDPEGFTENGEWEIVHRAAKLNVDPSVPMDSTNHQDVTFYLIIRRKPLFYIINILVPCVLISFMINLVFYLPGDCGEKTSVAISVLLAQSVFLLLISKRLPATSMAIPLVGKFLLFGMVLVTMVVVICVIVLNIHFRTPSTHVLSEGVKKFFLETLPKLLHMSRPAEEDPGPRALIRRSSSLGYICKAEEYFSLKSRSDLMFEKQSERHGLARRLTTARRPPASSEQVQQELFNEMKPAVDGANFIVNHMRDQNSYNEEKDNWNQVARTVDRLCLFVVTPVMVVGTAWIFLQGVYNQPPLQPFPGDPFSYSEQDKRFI
# Chain of mouse AChR αD97F (P20782 21-493, stated change not applied): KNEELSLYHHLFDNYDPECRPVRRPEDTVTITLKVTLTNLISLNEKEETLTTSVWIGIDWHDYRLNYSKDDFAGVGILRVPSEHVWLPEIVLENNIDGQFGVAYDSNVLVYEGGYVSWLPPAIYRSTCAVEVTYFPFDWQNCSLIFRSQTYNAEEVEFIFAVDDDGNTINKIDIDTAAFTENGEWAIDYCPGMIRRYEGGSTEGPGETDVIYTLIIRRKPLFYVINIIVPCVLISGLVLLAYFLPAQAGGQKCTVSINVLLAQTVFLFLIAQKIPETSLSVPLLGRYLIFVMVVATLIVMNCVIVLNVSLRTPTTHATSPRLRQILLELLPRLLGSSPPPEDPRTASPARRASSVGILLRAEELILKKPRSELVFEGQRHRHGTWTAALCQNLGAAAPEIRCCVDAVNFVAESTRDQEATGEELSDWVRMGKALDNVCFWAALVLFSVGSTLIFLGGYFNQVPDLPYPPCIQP
# Chain of mouse AChR αD97N (P04756 21-457 D117N): as the sequence (P04756 21-457 D117F) above, with F97N counted along it
# Chain of mouse AChR αD97N (P09690 24-501 partner): as the sequence (P09690 24-501 partner) above
# Chain of mouse AChR αD97N (P02716 25-520): as the sequence (P02716 25-520) above
# Chain of mouse AChR αD97N (P20782 21-493, stated change not applied): as the sequence (P20782 21-493, stated change not applied) above
compound,measurement,setting,value
C[N+](C)(C)CCO [choline],α2 (diliganded channel closing rate constant),[1]; 0.4 mM choline,"2,801 s^−1"
same,β2 (diliganded channel opening rate constant),[1]; 20 mM choline,60 s⁻¹
same,"L2 (diliganded gating equilibrium constant, β2/α2)",[1]; choline,0.022
same,L2-ratio (mut/wt),[1]; choline,0.45
same,α2 (diliganded channel closing rate constant),[2]; 0.4 mM choline,"1,974 s^−1"
same,β2 (diliganded channel opening rate constant),[2]; 20 mM choline,161 s⁻¹
same,"L2 (diliganded gating equilibrium constant, β2/α2)",[2]; choline,0.082
same,L2-ratio (mut/wt),[2]; choline,1.71
same,α2 (diliganded channel closing rate constant),[3]; 0.4 mM choline,"2,379 s^−1"
same,β2 (diliganded channel opening rate constant),[3]; 20 mM choline,268 s⁻¹
same,"L2 (diliganded gating equilibrium constant, β2/α2)",[3]; choline,0.113
same,L2-ratio (mut/wt),[3]; choline,2.37
same,α2 (diliganded channel closing rate constant),[4]; 0.4 mM choline,"2,076 s^−1"
same,β2 (diliganded channel opening rate constant),[4]; 20 mM choline,"2,967 s^−1"
same,"L2 (diliganded gating equilibrium constant, β2/α2)",[4]; choline,1.429
same,β2 from saturation of the effective opening rate,"[4]; choline, fit by Eq. 1","2,875 s^−1"
same,L2 (equilibrium gating constant) from Popen dose–response analysis,"[4]; choline, fit by Eq. 2",2.9 ± 0.7 and 2.9
same,L2,"[4]; choline, Scheme I",1.3 ± 0.2
same,L2,"[4]; choline, Scheme I, listed as Choline",1.31 ± 0.21
same,α2,[4]; [11],"2,293 ± 214 s^−1"
same,β2,[4]; [11],"3,024 ± 131 s^−1"
same,α2 (diliganded channel closing rate constant),[5]; 0.4 mM choline,"1,831 s^−1"
same,β2 (diliganded channel opening rate constant),[5]; 20 mM choline,"2,748 s^−1"
same,"L2 (diliganded gating equilibrium constant, β2/α2)",[5]; choline,1.501
same,L2-ratio (mut/wt),[5]; choline,31.52
same,α2 (diliganded channel closing rate constant),[6]; 0.4 mM choline,"1,653 s^−1"
same,β2 (diliganded channel opening rate constant),[6]; 20 mM choline,"10,951 s^−1"
same,"L2 (diliganded gating equilibrium constant, β2/α2)",[6]; choline,6.624
same,L2-ratio (mut/wt),[6]; choline,139.12
same,α2* (apparent channel closing rate constant),[7],861 s⁻¹
same,β2 (channel opening rate constant),[7],49 s⁻¹
same,α2* (apparent channel closing rate constant),[8],"1,335 s^−1"
same,β2 (channel opening rate constant),[8],36 s⁻¹
same,α2* (apparent channel closing rate constant),[9],630 s⁻¹
same,β2 (channel opening rate constant),[9],146 s⁻¹
same,choline dissociation from open AChRs (value subtracted from the α2 estimate),"[10]; ref Cymes et al., 2002",200 s⁻¹
same,"channel-opening rate constant, times slower than for ACh","[10]; wt AChRs, ref Zhou et al., 1999, Grosman and Auerbach, 2000a",500 times
